Source: US4322346A, “5H-2,3-Benzodiazepine derivatives” (priority 1978, dated 1982)
Entries after “also recorded” stand apart in the source; their conditions may differ.

Assays:
Format in all cases: in vivo
[1] = tested on: mice; assay: General behaviour of mice; settings: 100 mg/kg i.p. and, resp., 200 mg/kg p.o., SMA = spontaneous motor activity
Protocol: These compounds decrease the spontaneous motor activity and potentiate the effect of narcotics.
(§1) The tests were performed on mice. In the examination of the general behaviour the animals were treated intraperitoneally with 100 mg/kg or orally with 200 mg/kg of the compound in question. The fighting behaviour test was performed according to the method of Tedeschi et al. (J. Pharm. Exp. Ther. 25, 28 /1959/). The observations concerning the general behaviour of the animals and the ED50 values obtained in the fighting behaviour test are summarized in Table 1. In these tests 1-(3,4-dimethoxyphenyl)-4-methyl-5-ethyl-7,8-dimethoxy-5H-2,3-benzodiazepine (Grandaxin) was applied as reference substance.

[2] = tested on: mice; assay: Fighting behaviour test on mice (method of Tedeschi et al.); settings: for ED50: Mus musculus, po, mice; for "Fighting behaviour" test on mice, relative activity: relative to Grandaxin (1.0), from ED50 p.o.
Protocol: as §1

[3] = tested on: mice; assay: Narcosis potentiating activity on mice (sodium hexobarbital narcosis); settings: for Narcosis potentiating activity on mice, Relative activity: relative to Grandaxin (1.0); for change in vivo at 12.5 mg/kg / change in vivo at 25 mg/kg / change in vivo at 50 mg/kg / change in vivo at 100 mg/kg: Mus musculus, po, 30 minutes before 50 mg/kg sodium hexobarbital i.v., prolongation vs control, read-out: Narcosis potentiating activity on mice, Increase, %
Protocol: When studying the narcosis potentiating effect, the benzodiazepine compounds were administered to mice in oral dosages of 12.5, 25, 50 or 100 mg/kg, and 30 minutes later 50 mg/kg of sodium hexobarbital were injected intravenously into the animals. The percentage prolongation of the narcosis period, compared to the value observed in the control group treated with sodium hexobarbital alone, was calculated. In these tests Grandaxin was applied again as reference substance.

CCCOc1cc2c(cc1OC)C(c1ccc(OC)c(OC)c1)=NN=C(C)C2CC (stereo not shown) [Example 37, 1-(3,4-dimethoxyphenyl)-4-methyl-5-ethyl-7-n-propoxy-8-methoxy-5H-2,3-benzodiazepine]
General behaviour [1]: Strong decrease of SMA
ED50 [2]: 40 mg/kg
"Fighting behaviour" test on mice, relative activity [2]: 1.6

CCC1C(C)=NN=C(c2ccccc2Cl)c2cc(OC)c(OC)cc21 (stereo not shown) [Example 18, 1-(2-chlorophenyl)-4-methyl-5-ethyl-7,8-dimethoxy-5H-2,3-benzodiazepine]
Narcosis potentiating activity on mice, Relative activity ([3]; 12.5 mg/kg p.o.): 9.41
Narcosis potentiating activity on mice, Relative activity ([3]; 25 mg/kg p.o.): 4.65
Narcosis potentiating activity on mice, Relative activity ([3]; 50 mg/kg p.o.): 13.33
change in vivo at 12.5 mg/kg ([3]; 12.5 mg/kg p.o.): 160%
change in vivo at 25 mg/kg ([3]; 25 mg/kg p.o.): 377%
General behaviour [1]: Strong decrease of SMA
ED50 [2]: 40 mg/kg
"Fighting behaviour" test on mice, relative activity [2]: 1.6

CCC1C(C)=NN=C(c2ccccc2F)c2cc(OC)c(OC)cc21 (stereo not shown) [Example 14, 1-(2-fluorophenyl)-4-methyl-5-ethyl-7,8 dimethoxy-5H-2,3-benzodiazepine]
Narcosis potentiating activity on mice, Relative activity ([3]; 12.5 mg/kg p.o.): 8.65
Narcosis potentiating activity on mice, Relative activity ([3]; 25 mg/kg p.o.): 3.16
Narcosis potentiating activity on mice, Relative activity ([3]; 50 mg/kg p.o.): 6.57
change in vivo at 12.5 mg/kg ([3]; 12.5 mg/kg p.o.): 147%
change in vivo at 25 mg/kg ([3]; 25 mg/kg p.o.): 256%
change in vivo at 50 mg/kg ([3]; 50 mg/kg p.o.): 750%

COc1cc2c(cc1OC)C(c1cccc(Cl)c1)=NN=C(C)C2 [Example 39, 1-(3-Chlorophenyl)-4-methyl-7,8-dimethoxy-5H-2,3-benzodiazepine]
Narcosis potentiating activity on mice, Relative activity ([3]; 12.5 mg/kg p.o.): 7.94
Narcosis potentiating activity on mice, Relative activity ([3]; 25 mg/kg p.o.): 4.25
change in vivo at 12.5 mg/kg ([3]; 12.5 mg/kg p.o.): 135%
change in vivo at 25 mg/kg ([3]; 25 mg/kg p.o.): 344%
General behaviour [1]: Strong decrease of SMA
ED50 [2]: 16 mg/kg
"Fighting behaviour" test on mice, relative activity [2]: 4.0

CCC1C(C)=NN=C(c2ccc(OC)cc2)c2cc(OC)c(OC)cc21 (stereo not shown) [Example 4, 1-(4-methoxyphenyl)-4-methyl-5-ethyl-7,8-dimethoxy-5H-2,3-benzodiazepine]
Narcosis potentiating activity on mice, Relative activity ([3]; 50 mg/kg p.o.): 2.17
change in vivo at 50 mg/kg ([3]; 50 mg/kg p.o.): 248%
General behaviour [1]: Decrease of SMA
ED50 [2]: 40 mg/kg
"Fighting behaviour" test on mice, relative activity [2]: 1.6

CCC1C(C)=NN=C(c2ccc(OC)c(OC)c2)c2cc(OC)c(OC)cc21 (stereo not shown) [Grandaxin, 1-(3,4-dimethoxyphenyl)-4-methyl-5-ethyl-7,8-dimethoxy-5H-2,3-benzodiazepine, reference compound]
Narcosis potentiating activity on mice, Relative activity ([3]; 12.5 mg/kg p.o.): 1.0
Narcosis potentiating activity on mice, Relative activity ([3]; 25 mg/kg p.o.): 1.0
Narcosis potentiating activity on mice, Relative activity ([3]; 50 mg/kg p.o.): 1.0
Narcosis potentiating activity on mice, Relative activity ([3]; 100 mg/kg p.o.): 1.0
change in vivo at 12.5 mg/kg ([3]; 12.5 mg/kg p.o.): 17%
change in vivo at 25 mg/kg ([3]; 25 mg/kg p.o.): 81%
change in vivo at 50 mg/kg ([3]; 50 mg/kg p.o.): 114%
change in vivo at 100 mg/kg ([3]; 100 mg/kg p.o.): 239%
General behaviour [1]: Decrease of SMA
ED50 [2]: 64 mg/kg
"Fighting behaviour" test on mice, relative activity [2]: 1.0

CCCC1C(C)=NN=C(c2ccc(OC)c(OC)c2)c2cc(OC)c(OC)cc21.O (stereo not shown) [Example 10, 1-(3,4-dimethoxyphenyl)-4-methyl-5-n-propyl-7,8-dimethoxy-5H-2,3-benzodiazepine hydrate]
Narcosis potentiating activity on mice, Relative activity ([3]; 25 mg/kg p.o.): 1.23
Narcosis potentiating activity on mice, Relative activity ([3]; 50 mg/kg p.o.): 1.62
change in vivo at 25 mg/kg ([3]; 25 mg/kg p.o.): 100%
change in vivo at 50 mg/kg ([3]; 50 mg/kg p.o.): 185%

CCC1C(C)=NN=C(c2ccc(OC)c(OC)c2)c2cc(OC)c(OC(C)C)cc21 (stereo not shown) [Example 33, 1-(3,4-dimethoxyphenyl)-4-methyl-5-ethyl-7-isopropoxy-8-methoxy-5H-2,3-benzodiazepine]
Narcosis potentiating activity on mice, Relative activity ([3]; 25 mg/kg p.o.): 3.01
Narcosis potentiating activity on mice, Relative activity ([3]; 50 mg/kg p.o.): 3.90
change in vivo at 25 mg/kg ([3]; 25 mg/kg p.o.): 244%
change in vivo at 50 mg/kg ([3]; 50 mg/kg p.o.): 445%

COc1cc2c(cc1OC)C(c1cccc(F)c1)=NN=C(C)C2 [Example 41, 1-(3-Fluorphenyl)-4-methyl-7,8-dimethoxy-5H-2,3-benzodiazepine]
Narcosis potentiating activity on mice, Relative activity ([3]; 50 mg/kg p.o.): 1.80
Narcosis potentiating activity on mice, Relative activity ([3]; 100 mg/kg p.o.): 1.60
change in vivo at 50 mg/kg ([3]; 50 mg/kg p.o.): 205%
change in vivo at 100 mg/kg ([3]; 100 mg/kg p.o.): 383%
General behaviour [1]: Decrease of SMA
ED50 [2]: 37 mg/kg
"Fighting behaviour" test on mice, relative activity [2]: 1.7

CCC1C(C)=NN=C(c2ccccc2C)c2cc(OC)c(OC)cc21 (stereo not shown) [Example 7, 1-(2-tolyl)-4-methyl-5-ethyl-7,8-dimethoxy-5H-2,3-benzodiazepine]
Narcosis potentiating activity on mice, Relative activity ([3]; 25 mg/kg p.o.): 3.71
change in vivo at 25 mg/kg ([3]; 25 mg/kg p.o.): 301%

COc1cccc(C2=NN=C(C)Cc3cc(OC)c(OC)cc32)c1 [Example 46, 1-(3-Methoxyphenyl)-4-methyl-7,8-dimethoxy-5H-2,3-benzodiazepine]
Narcosis potentiating activity on mice, Relative activity ([3]; 12.5 mg/kg p.o.): 8.24
Narcosis potentiating activity on mice, Relative activity ([3]; 25 mg/kg p.o.): 3.70
change in vivo at 12.5 mg/kg ([3]; 12.5 mg/kg p.o.): 140%
change in vivo at 25 mg/kg ([3]; 25 mg/kg p.o.): 300%
General behaviour [1]: Strong decrease of SMA
ED50 [2]: 50 mg/kg
"Fighting behaviour" test on mice, relative activity [2]: 1.3

CCC1C(C)=NN=C(c2ccccc2)c2cc(OC)c(OC)cc21 (stereo not shown) [Example 22, 1-phenyl-4-methyl-5-ethyl-7,8-dimethoxy-5H-2,3-benzodiazepine]
Narcosis potentiating activity on mice, Relative activity ([3]; 25 mg/kg p.o.): 2.23
Narcosis potentiating activity on mice, Relative activity ([3]; 50 mg/kg p.o.): 3.20
change in vivo at 25 mg/kg ([3]; 25 mg/kg p.o.): 181%
change in vivo at 50 mg/kg ([3]; 50 mg/kg p.o.): 364%
General behaviour [1]: Decrease of SMA; also recorded: catalepsy
ED50 [2]: 35 mg/kg
"Fighting behaviour" test on mice, relative activity [2]: 1.8

CCC1C(C)=NN=C(c2ccc(O)c(OC)c2)c2cc(OC)c(OC)cc21 (stereo not shown) [Example 24, 1-(3-methoxy-4-hydroxyphenyl)-4-methyl-5-ethyl-7,8-dimethoxy-5H-2,3-benzodiazepine]
Narcosis potentiating activity on mice, Relative activity ([3]; 50 mg/kg p.o.): 1.16
change in vivo at 50 mg/kg ([3]; 50 mg/kg p.o.): 132%

COc1cc2c(cc1OC)C(c1ccco1)=NN=C(C)C2 [Example 45, 1-(2-Furyl)-4-methyl-7,8-dimethoxy-5H-2,3-benzodiazepine]
Narcosis potentiating activity on mice, Relative activity ([3]; 25 mg/kg p.o.): 3.09
change in vivo at 25 mg/kg ([3]; 25 mg/kg p.o.): 250%
General behaviour [1]: Decrease of SMA
ED50 [2]: 50 mg/kg
"Fighting behaviour" test on mice, relative activity [2]: 1.3

CCC1C(C)=NN=C(c2cccc(F)c2)c2cc(OC)c(OC)cc21 (stereo not shown) [Example 42, 1-(3-Fluorphenyl)-4-methyl-5-ethyl-7,8-dimethoxy-5H-2,3-benzodiazepine]
Narcosis potentiating activity on mice, Relative activity ([3]; 25 mg/kg p.o.): 2.52
Narcosis potentiating activity on mice, Relative activity ([3]; 50 mg/kg p.o.): 3.04
change in vivo at 25 mg/kg ([3]; 25 mg/kg p.o.): 204%
change in vivo at 50 mg/kg ([3]; 50 mg/kg p.o.): 347%
General behaviour [1]: Decrease of SMA
ED50 [2]: 40 mg/kg
"Fighting behaviour" test on mice, relative activity [2]: 1.6

CCOc1cc2c(cc1OC)C(c1ccc(OC)c(OC)c1)=NN=C(C)C2CC (stereo not shown) [Example 36, 1-(3,4-dimethoxyphenyl)-4-methyl-5-ethyl-7-ethoxy-8-methoxy-5H-2,3-benzodiazepine]
Narcosis potentiating activity on mice, Relative activity ([3]; 25 mg/kg p.o.): 1.62
Narcosis potentiating activity on mice, Relative activity ([3]; 50 mg/kg p.o.): 2.44
change in vivo at 25 mg/kg ([3]; 25 mg/kg p.o.): 132%
change in vivo at 50 mg/kg ([3]; 50 mg/kg p.o.): 278%

COc1cc2c(cc1OC)C(C)C(C)=NN=C2c1cccc(Cl)c1 (stereo not shown) [Example 40, 1-(3-Chlorophenyl)-4,5-dimethyl-7,8-dimethoxy-5H-2,3-benzodiazepine]
Narcosis potentiating activity on mice, Relative activity ([3]; 50 mg/kg p.o.): 0.79
Narcosis potentiating activity on mice, Relative activity ([3]; 100 mg/kg p.o.): 0.91
change in vivo at 50 mg/kg ([3]; 50 mg/kg p.o.): 90%
change in vivo at 100 mg/kg ([3]; 100 mg/kg p.o.): 218%
General behaviour [1]: Decrease of SMA
ED50 [2]: 50 mg/kg
"Fighting behaviour" test on mice, relative activity [2]: 1.3

COc1cc2c(cc1OC)C(c1ccccc1OC)=NN=C(C)C2 [Example 43, 1-(2-Methoxyphenyl)-4-methyl-7,8-dimethoxy-5H-2,3-benzodiazepine]
Narcosis potentiating activity on mice, Relative activity ([3]; 25 mg/kg p.o.): 2.89
change in vivo at 25 mg/kg ([3]; 25 mg/kg p.o.): 234%
General behaviour [1]: Decrease of SMA
ED50 [2]: 36 mg/kg
"Fighting behaviour" test on mice, relative activity [2]: 1.8

COc1cc2c(cc1OC)C(c1cccc(C(F)(F)F)c1)=NN=C(C)C2 [Example 44, 1-(3-Trifluoromethyl-phenyl)-4-methyl-7,8-dimethoxy-5H-2,3-benzodiazepine]
Narcosis potentiating activity on mice, Relative activity ([3]; 12.5 mg/kg p.o.): 8.82
Narcosis potentiating activity on mice, Relative activity ([3]; 25 mg/kg p.o.): 3.63
change in vivo at 12.5 mg/kg ([3]; 12.5 mg/kg p.o.): 150%
change in vivo at 25 mg/kg ([3]; 25 mg/kg p.o.): 294%
General behaviour [1]: Strong decrease of SMA
ED50 [2]: 22 mg/kg
"Fighting behaviour" test on mice, relative activity [2]: 2.9

CCC1=NN=C(c2ccc(OC)c(OC)c2)c2cc(OC)c(OC)cc2C1CC (stereo not shown) [Example 11, 1-(3,4-dimethoxyphenyl)-4,5-diethyl-7,8-dimethoxy-5H-2,3-benzodiazepine]
Narcosis potentiating activity on mice, Relative activity ([3]; 25 mg/kg p.o.): 1.65
Narcosis potentiating activity on mice, Relative activity ([3]; 50 mg/kg p.o.): 1.43
change in vivo at 25 mg/kg ([3]; 25 mg/kg p.o.): 134%
change in vivo at 50 mg/kg ([3]; 50 mg/kg p.o.): 163%
